From patent US12012374B2, “Agonists of ROR GAMMAt” (BRISTOL-MYERS SQUIBB COMPANY, priority 2019, dated 2024)
pEC50: −log10 of the molar value.

What follows are compounds tested against T1, human RORgT (Homo sapiens, UniProt P51449) (assay: RORgT Gal4 Luciferase Reporter Gene Assay). Details: engineered Jurkat cells overexpressing RORgT (LBD or full length) fused with Gal4 Luc reporter; 18 hours incubation.
T1 construct: expressed in transfected cells; host or cells: engineered Jurkat cells (Jurkat pEx/Gal/hRORγ CLBD/HYG pG5luc/blast)
T1 sequence (P51449 267-516): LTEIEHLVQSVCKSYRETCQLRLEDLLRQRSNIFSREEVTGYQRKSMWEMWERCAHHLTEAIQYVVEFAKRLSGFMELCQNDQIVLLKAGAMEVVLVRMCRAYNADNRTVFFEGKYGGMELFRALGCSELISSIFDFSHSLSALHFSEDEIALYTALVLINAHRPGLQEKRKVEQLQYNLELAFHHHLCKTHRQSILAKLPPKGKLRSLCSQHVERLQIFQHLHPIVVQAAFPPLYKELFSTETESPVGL
Type: cell-based

Going from O=C(O)[C@H]1CC[C@H](C(=O)N2CC[C@](c3ccc(OCc4c(Cl)cccc4Cl)cc3)(S(=O)(=O)c3ccc(F)cc3)C2)CC1 [Example 35, (1r,4r)-4-[(3R)-3-{4-[(2,6-dichlorophenyl)methoxy]phenyl}-3-(4-fluorobenzenesulfonyl)pyrrolidine-1-carbonyl]cyclohexane-1-carboxylic acid] to O=C(O)[C@H]1CC[C@H](C(=O)N2CC[C@](c3ccc(OCc4c(Cl)cccc4C(F)(F)F)cc3)(S(=O)(=O)c3ccc(F)cc3)C2)CC1 [Example 47, (1r,4r)-4-[(3R)-3-(4-{[2-chloro-6-(trifluoromethyl)phenyl]methoxy}phenyl)-3-(4-fluorobenzenesulfonyl)pyrrolidine-1-carbonyl]cyclohexane-1-carboxylic acid], the pEC50 falls from 7.24 to 6.53 (0.71 log units). The first is the more potent here.

Compared with O=S(=O)(c1ccc(F)cc1)C1(c2ccc(OCCc3ccccc3)cc2)CCCC1 [Example 4, 1-[1-(4-fluorobenzenesulfonyl)cyclopentyl]-4-(2-phenylethoxy)benzene], O=S(=O)(c1ccccc1)C1(c2ccc(OCc3ccc(F)cc3)cc2)CCCC1 [Example 12, 1-[1-(benzenesulfonyl)cyclopentyl]-4-[(4-fluorophenyl)methoxy]benzene] is 0.20 log units higher in pEC50: 6.86 for the first, 7.06 for the second. The second is the more potent here.

Compared with NC(=O)[C@H]1CC[C@H](C(=O)N2CC[C@](c3ccc(OCc4c(Cl)cccc4C(F)(F)F)cc3)(S(=O)(=O)c3ccc(F)cc3)C2)CC1 [Example 45, (1r,4r)-4-[(3R)-3-(4-{[2-chloro-6-(trifluoromethyl)phenyl]methoxy}phenyl)-3-(4-fluorobenzenesulfonyl)pyrrolidine-1-carbonyl]cyclohexane-1-carboxamide], NC(=O)[C@H]1CC[C@H](C(=O)N2CC[C@](c3ccc(OCc4c(F)cccc4C(F)(F)F)cc3)(S(=O)(=O)c3ccc(F)cc3)C2)CC1 [Example 44, (1r,4r)-4-[(3R)-3-(4-{[2-fluoro-6-(trifluoromethyl)phenyl]methoxy}phenyl)-3-(4-fluorobenzenesulfonyl)pyrrolidine-1-carbonyl]cyclohexane-1-carboxamide] is 0.26 log units higher in pEC50: 6.45 for the first, 6.71 for the second. The second is the more potent here.

Going from O=C(C1CCS(=O)(=O)CC1)N1CCC(c2ccc(OCc3ccccc3)cc2)(S(=O)(=O)c2cccc(C(F)(F)F)c2)C1 (stereo not shown) [Example 21, 4-{3-[4-(benzyloxy)phenyl]-3-[3-(trifluoromethyl)benzenesulfonyl]pyrrolidine-1-carbonyl}-1λ^6-thiane-1,1-dione] to O=C(C1CCS(=O)(=O)CC1)N1CCC(c2ccc(OCc3ccccc3Cl)cc2)(S(=O)(=O)c2ccccc2)C1 (stereo not shown) [Example 28, 4-[3-(benzenesulfonyl)-3-{4-[(2-chlorophenyl)methoxy]phenyl}pyrrolidine-1-carbonyl]-1λ^6-thiane-1,1-dione], the pEC50 rises from 6.34 to 6.73 (0.39 log units).

First: O=S(=O)(c1cccc(C(F)(F)F)c1)C1(c2ccc(OCc3ccccc3)cc2)CCCC1 [Example 8, 1-(benzyloxy)-4-{1-[3-(trifluoromethyl)benzenesulfonyl]cyclopentyl}benzene]
Second: O=S(=O)(c1cccc(Cl)c1)C1(c2ccc(OCc3ccccc3)cc2)CCCC1 [Example 5, 1-(benzyloxy)-4-[1-(3-chlorobenzenesulfonyl)cyclopentyl]benzene]
The pEC50 of the first is 0.20 log units lower: 6.42 for the first, 6.62 for the second. The second is the more potent here.

First: O=C(N1CC[C@](c2ccc(OCc3c(F)cccc3C(F)(F)F)cc2)(S(=O)(=O)c2ccc(F)cc2)C1)C1(O)CCS(=O)(=O)CC1 [Example 43, 4-[(3R)-3-(4-{[2-fluoro-6-(trifluoromethyl)phenyl]methoxy}phenyl)-3-(4-fluorobenzenesulfonyl)pyrrolidine-1-carbonyl]-4-hydroxy-1λ^6-thiane-1,1-dione]
Second: O=C(O)[C@H]1CC[C@H](C(=O)N2CC[C@](c3ccc(OCc4c(F)cccc4C(F)(F)F)cc3)(S(=O)(=O)c3ccc(F)cc3)C2)CC1 [Example 42, (1r,4r)-4-[(3R)-3-(4-{[2-fluoro-6-(trifluoromethyl)phenyl]methoxy}phenyl)-3-(4-fluorobenzenesulfonyl)pyrrolidine-1-carbonyl]cyclohexane-1-carboxylic acid]
The pEC50 of the first is 0.52 log units higher: 7.85 for the first, 7.33 for the second. The first is the more potent here.

Going from O=S(=O)(c1ccc(Cl)cc1)C1(c2ccc(OCc3ccccc3)cc2)CCCC1 [Example 9, 1-(benzyloxy)-4-[1-(4-chlorobenzenesulfonyl)cyclopentyl]benzene] to O=S(=O)(c1ccccc1)C1(c2ccc(OCc3cccc(F)c3)cc2)CCCC1 [Example 11, 1-[1-(benzenesulfonyl)cyclopentyl]-4-[(3-fluorophenyl)methoxy]benzene], the pEC50 falls from 6.67 to 6.40 (0.27 log units). The first is the more potent here.

Compared with C[C@H](Oc1ccc([C@]2(S(=O)(=O)c3ccc(F)cc3)CCN(C(=O)C3CCS(=O)(=O)CC3)C2)cc1)c1ccccc1 [Example 37, 4-[(3R)-3-(4-fluorobenzenesulfonyl)-3-{4-[(1S)-1-phenylethoxy]phenyl}pyrrolidine-1-carbonyl]-1λ^6-thiane-1,1-dione], O=C(C1CCS(=O)(=O)CC1)N1CC[C@](c2ccc(OCc3c(Cl)cccc3Cl)cc2)(S(=O)(=O)c2ccccc2)C1 [Example 33, 4-[(3R)-3-(benzenesulfonyl)-3-{4-[(2,6-dichlorophenyl)methoxy]phenyl}pyrrolidine-1-carbonyl]-1λ^6-thiane-1,1-dione] is 0.38 log units higher in pEC50: 7.11 for the first, 7.49 for the second. The second is the more potent here.
